How the values were obtained:
[1] = test system: Naïve CD4+ T cells, Th17 cells; experiment: CD4+ T cell differentiation under Th17 conditions (IL-17A, ELISA and FACS); assay type: cell-based, mice
Description: (§1) Naïve CD4^+ T cells were purified from mice spleens and lymph nodes using positive selection by magnetic beads (CD4 L3T4 Kit, Miltenyi Biotec, UK). The purified T cells were activated by plate-bound αCD3ε (1 μg/ml; 2C11) and αCD28 (3 μg/ml; 37.51) in the presence or absence of the compound of Example 1 or Cyclosporin A (Sigma Aldrich), and cultured for 72 hrs under Th1 conditions (IL-12 [20 ng/ml]+αIL-4 (11B1) [10 μg/ml]), 72 hrs under Th17 conditions (αIFNγ [10 μg/ml]+αIL-4 [5 μg/ml]+IL-6 [[…]]+TGFβ(5 ng/ml)), and 96 hrs under iTreg conditions (TGFβ (5 ng/ml)) at 37° C.
(§2) ELISA kits for mouse IFNγ and IL-17a were purchased from eBioscience (Thermo Fisher, UK) and performed in accordance to manufacturer's instructions using Corning® High Binding ELISA plates (Merck, CLS9018). All ELISAs were analysed using a Synergy MX microplate reader (BioTek).
(§3) Intracellular protein expression was evaluated by first restimulating the cells with phorbol-12-myristate 13-acetate (PMA)(10 ng/ml) (Sigma Aldrich), ionomycin (1 μg/ml) (Sigma Aldrich) and Brefeldin A (5 μg/ml) (eBioscience) for 4-6 hours at 37° C. […] Fc block (93) and all fluorescence dye labelled antibodies used αCD4 (GK1.5), αIFNγ (XMG1.2), αIL-17a (17B7), αFOXP3 (NRRF-30; FJK-16S) were purchased from eBiosciences (Thermo Fisher, UK). […]

[2] = test system: Naïve CD4+ T cells, Th1 cells; experiment: CD4+ T cell differentiation under Th1 conditions (IFNγ, ELISA and FACS); assay type: cell-based, mice
Description: as §1, §2, §3

What does the source list for `CN1CCOc2c1c(N[C@H]1CC[C@@](C)(O)CC1)nn1c(-c3cccc(OC(F)(F)F)c3)nnc21` [Example 1, 1-Methyl-4-[6-methyl-3-(3-trifluoromethoxy-phenyl)-7,8-dihydro-6H-9-oxa-1,2,3a,4,6-pentaaza-cyclopenta[a]naphthalen-5-ylamino]-cyclohexanol]?
pro-inflammatory Th17 responses ([1]; 12.5 nM, 72 hrs Th17 conditions): significant suppression; Differentiation of Th17 cells in vitro as determined by the secretion of IL-17A ([1]; at a range of concentrations, ELISA and FACS): inhibited; pro-inflammatory Th1 responses ([2]; 12.5 nM, 72 hrs Th1 conditions): significant suppression; Differentiation of Th1 cells in vitro as determined by the secretion of IFNγ ([2]; across a range of concentrations, ELISA and FACS): inhibited

Source: patent US20250042918A1, “COMPOUNDS” (Fundación Del Sector Públlco Estatal Centro Nacional De …, priority 2021, published 2025)
